Experimental data as given in BindingDB's records for doi:10.1016/j.bmc.2012.05.068 (Duquesne University, 2012).

Columns and labels:
[1] = target: T1, Bifunctional dihydrofolate reductase-thymidylate synthase (Toxoplasma gondii, UniProt Q07422); assay: Inhibition of Toxoplasma gondii thymidylate synthase
T1 sequence (Q07422 whole entry): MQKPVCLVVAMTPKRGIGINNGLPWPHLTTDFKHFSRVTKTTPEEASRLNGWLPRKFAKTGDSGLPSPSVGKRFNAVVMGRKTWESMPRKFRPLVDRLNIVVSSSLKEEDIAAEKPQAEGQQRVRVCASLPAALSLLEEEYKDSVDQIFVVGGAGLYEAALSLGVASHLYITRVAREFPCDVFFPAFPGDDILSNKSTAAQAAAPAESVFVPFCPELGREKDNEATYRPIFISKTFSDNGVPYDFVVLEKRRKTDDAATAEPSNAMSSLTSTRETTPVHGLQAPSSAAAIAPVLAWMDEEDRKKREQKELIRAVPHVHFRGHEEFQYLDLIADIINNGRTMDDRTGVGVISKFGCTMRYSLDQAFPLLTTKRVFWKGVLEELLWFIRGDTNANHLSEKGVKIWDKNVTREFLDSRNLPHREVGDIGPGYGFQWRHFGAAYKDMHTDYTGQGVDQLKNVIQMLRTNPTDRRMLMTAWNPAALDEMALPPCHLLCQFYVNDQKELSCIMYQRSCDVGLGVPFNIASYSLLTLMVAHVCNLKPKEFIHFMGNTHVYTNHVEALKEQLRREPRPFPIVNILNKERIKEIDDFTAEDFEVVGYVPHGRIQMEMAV

[2] = target: Dihydroorotate dehydrogenase (quinone), mitochondrial (Homo sapiens, UniProt Q02127); assay: Inhibition of human DHODH
[3] = target: T1, Bifunctional dihydrofolate reductase-thymidylate synthase; assay: Inhibition of Toxoplasma gondii DHFR
[4] = target: Thymidylate synthase (Homo sapiens, UniProt P04818); assay: Inhibition of human thymidylate synthase
Thymidylate synthase, sequence (P04818 whole entry): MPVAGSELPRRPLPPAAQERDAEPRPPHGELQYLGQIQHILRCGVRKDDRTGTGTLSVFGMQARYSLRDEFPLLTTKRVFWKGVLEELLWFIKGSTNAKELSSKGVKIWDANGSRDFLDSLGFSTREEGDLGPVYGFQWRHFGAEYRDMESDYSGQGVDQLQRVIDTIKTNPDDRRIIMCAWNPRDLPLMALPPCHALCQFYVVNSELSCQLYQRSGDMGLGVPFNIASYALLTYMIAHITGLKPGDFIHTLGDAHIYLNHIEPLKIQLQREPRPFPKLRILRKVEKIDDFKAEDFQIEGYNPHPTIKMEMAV

Dihydroorotate dehydrogenase (quinone), mitochondrial, sequence (Q02127 whole entry): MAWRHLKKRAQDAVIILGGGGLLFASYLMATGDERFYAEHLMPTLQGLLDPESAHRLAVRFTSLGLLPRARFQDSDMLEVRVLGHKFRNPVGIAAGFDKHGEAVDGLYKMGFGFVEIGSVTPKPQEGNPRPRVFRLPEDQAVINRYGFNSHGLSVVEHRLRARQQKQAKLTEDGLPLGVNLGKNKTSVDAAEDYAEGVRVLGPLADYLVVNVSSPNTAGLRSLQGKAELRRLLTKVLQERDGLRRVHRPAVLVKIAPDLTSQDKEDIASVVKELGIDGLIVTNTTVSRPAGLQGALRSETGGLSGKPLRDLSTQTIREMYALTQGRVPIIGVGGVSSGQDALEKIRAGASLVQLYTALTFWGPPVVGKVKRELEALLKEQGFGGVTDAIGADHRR

SMILES	IC50 [2] [µM]	IC50 [4] [µM]	IC50 [1] [µM]	IC50 [3] [µM]
Nc1nc2cc3ccccc3c-2c(Nc2ccc(Cl)cc2F)[nH]1	> 200	> 13	> 13	> 16
Nc1nc2cc3ccccc3c-2c(Nc2ccccc2)[nH]1	> 200	–	–	–
Nc1nc2cc3ccccc3c-2c(Nc2cccc(F)c2)[nH]1	> 200	–	–	–
Nc1nc2cc3ccccc3c-2c(Nc2ccc(Cl)cc2)[nH]1	> 200	> 14	> 14	> 16
COc1cccc(Nc2[nH]c(N)nc3cc4ccccc4c2-3)c1	> 200	–	–	–

Continued, in another order:

IC50 [2] [µM]	IC50 [4] [µM]	SMILES	IC50 [1] [µM]	IC50 [3] [µM]
–	> 13	Nc1nc2cc3ccccc3c-2c(Nc2ccc(F)c(Cl)c2)[nH]1	> 13	> 16
> 200	–	Nc1nc2cc3ccccc3c-2c(Nc2cccc(Br)c2)[nH]1	–	> 14
–	> 14	CC(C)c1ccc(Nc2[nH]c(N)nc3cc4ccccc4c2-3)cc1	> 14	> 16
